In patent publication US6967095B2, “Human secretory type phospholipase A2” (Shionogi & Co., Ltd., priority 1998, dated 2005):

Legend:
[1] = target: T1, human IIA type secretory PLA2 (Homo sapiens, UniProt P14555); assay: Inhibition of secretory PLA2 activity, release of 14C-oleic acid from 14C-POPC; assay type: biochemical; settings: purified human IIA type (10 ng); 1 mM POPC, 3 mM deoxycholic acid, 2 mM CaCl2, pH 8.0, 40° C., 60 min; FIG. 4
T1 sequence (P14555 21-144): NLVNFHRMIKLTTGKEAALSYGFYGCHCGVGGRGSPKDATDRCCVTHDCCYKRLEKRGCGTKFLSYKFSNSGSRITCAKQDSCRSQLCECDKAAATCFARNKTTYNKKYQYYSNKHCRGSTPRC
Method: (§1) Inhibitory activity against this novel type of human secretory type PLA2 was determined with Indoxam that is a 1-oxamoylindolidine derivative. It has already been reported that Indoxam inhibits the enzymatic activities of IIA type and IB type secretory type PLA2 (Yokota et al., Biochim. Biophys. Acta (1999) 1438, 213-222). The PLA2 activities were determined by the measurement of the quantity of released ^14C-oleic acid from ^14C-labeled 1-palmitoyl-2-oleoyl-phosphatidylcholine (POPC), according to the Draheim et al.'s method (J. Med. Chem., (1996) 39, 5159-5175). In the solution composed of 50 mM Tris-HCl (pH 8.0), 200 mM NaCl, 2 mM CaCl2, and 1 mg/ml bovine serum albumin, the substrates composed of 1 mM POPC (the mixture of about 100,000 cpm ^-C-POPC and unlabeled POPC) and 3 mM deoxycholic acid were incubated with each secretory PLA2 in the presence of various concentrations of Indoxam at 40° C. for 60 min. Then, the quantity of released ^-C-oleic acid was measured. Purified materials were used in the case with human IB type (2 ng), IIA type (10 ng) and X type (4 ng). […]
(§2) The quantity of released ^14C-oleic acid from ^14C-POPC by each human secretory type PLA2 in the absence of Indoxam was regarded as 100% and the quantity of released ^14C-oleic acid in the presence of each concentration of Indoxam was shown as %.

[2] = target: T2, human PLA2 of this invention (IID type) (Homo sapiens, UniProt Q9UNK4); assay: as above; assay type: biochemical; settings: IID type from culture supernatant of CHO cells; 1 mM POPC, 3 mM deoxycholic acid, 2 mM CaCl2, pH 8.0, 40° C., 60 min; FIG. 4
T2 construct: made in house
T2 sequence (Q9UNK4 21-145): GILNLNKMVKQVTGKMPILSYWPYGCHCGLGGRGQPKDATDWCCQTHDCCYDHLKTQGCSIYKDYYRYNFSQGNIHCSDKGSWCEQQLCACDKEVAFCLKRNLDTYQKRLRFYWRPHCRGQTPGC
Method: as §1, §2

[3] = target: T3, IIA type secretory type PLA2 (Homo sapiens, UniProt P14555); settings: already reported, Yokota et al., Biochim. Biophys. Acta (1999) 1438, 213-222; cited from earlier work
T3 sequence (P14555 21-144): T1 sequence (P14555 21-144)

[4] = target: IB type secretory type PLA2 (Homo sapiens, UniProt P04054); settings: already reported, Yokota et al., Biochim. Biophys. Acta (1999) 1438, 213-222; cited from earlier work
IB type secretory type PLA2, sequence (P04054 23-148): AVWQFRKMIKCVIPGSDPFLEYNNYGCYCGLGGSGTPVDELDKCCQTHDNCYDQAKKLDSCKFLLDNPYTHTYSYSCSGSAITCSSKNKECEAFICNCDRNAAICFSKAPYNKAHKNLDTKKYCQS

Q: Which results are given for `CCc1c(C(=O)C(N)=O)c2c(OCC(=O)O)cccn2c1Cc1ccccc1-c1ccccc1` [Indoxam]?
A: inhibition of enzymatic activity (released 14C-oleic acid as % of that without Indoxam) [1]: strongly inhibits; inhibition of enzymatic activity (released 14C-oleic acid as % of that without Indoxam) [2]: strongly inhibits; inhibition of enzymatic activity of IIA type secretory type PLA2 [3]: inhibits; inhibition of enzymatic activity of IB type secretory type PLA2 [4]: inhibits
